Results as given in PubChem BioAssay AID248 (DTP/NCI, 2004).
Toxic doses and inconclusive results are not listed. Rule as the data show it: active = T/C of 150% or more; inactive = T/C below 125%. Square brackets hold non-standard residues; d marks the D form. Peptide text beside a SMILES is read from it. * marks the point of attachment. ξ: configuration not given here. Cbz = O=C(OCc1ccccc1)*; ξD = NC(CC(=O)O)C(=O)O

Test system: L1210 leukemia ip in BDF1 mice, survival T/C
Experiment: NCI In Vivo Anticancer Drug Screen. Data for tumor model L1210 Leukemia (intraperitoneal) in B6D2F1 (BDF1) mice
Settings: endpoint: mean survival time, higher = longer survival
Method in brief: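 Each compound was tested against a transplantable tumor grown in mice. The endpoint was survival, with treated animals benchmarked against vehicle controls as a simple ratio.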

[1] = dose: 100.0 mg/kg/injection, schedule: Q01DX001 (ip), vehicle: saline
[2] = dose: 200.0 mg/kg/injection, schedule: Q01DX001 (ip), vehicle: saline
[3] = dose: 100.0 mg/kg/injection, schedule: Q04DX003 (ip), vehicle: saline
[4] = dose: 200.0 mg/kg/injection, schedule: Q04DX003 (ip), vehicle: saline
[5] = dose: 100.0 mg/kg/injection, schedule: Q04DX003 (ip), vehicle: saline with Tween-80
[6] = dose: 200.0 mg/kg/injection, schedule: Q04DX003 (ip), vehicle: saline with Tween-80
[7] = dose: 400.0 mg/kg/injection, schedule: Q04DX003 (ip), vehicle: saline with Tween-80
[8] = dose: 100.0 mg/kg/injection, schedule: Q04DX003 (ip), vehicle: Klucel (hydroxypropylcellulose) (HPC)
[9] = dose: 200.0 mg/kg/injection, schedule: Q04DX003 (ip), vehicle: Klucel (hydroxypropylcellulose) (HPC)
[10] = dose: 100.0 mg/kg/injection, schedule: Q01DX009 (ip), vehicle: Klucel (hydroxypropylcellulose) (HPC)
[11] = dose: 200.0 mg/kg/injection, schedule: Q01DX009 (ip), vehicle: Klucel (hydroxypropylcellulose) (HPC)
[12] = dose: 100.0 mg/kg/injection, schedule: Q01DX009 (ip), vehicle: saline with Tween-80
[13] = dose: 200.0 mg/kg/injection, schedule: Q01DX009 (ip), vehicle: saline with Tween-80
[14] = dose: 400.0 mg/kg/injection, schedule: Q01DX009 (ip), vehicle: saline with Tween-80
[15] = dose: 50.0 mg/kg/injection, schedule: Q01DX009 (ip), vehicle: saline with Tween-80
[16] = dose: 400.0 mg/kg/injection, schedule: Q01DX001 (ip), vehicle: saline

Measured: T/C

O=S(OCc1ccccc1)OCc1ccccc1
inactive: dose: 100.0 mg/kg/injection, schedule: Q01DX009 (ip), vehicle: saline 98 % of control | dose: 200.0 mg/kg/injection, schedule: Q01DX009 (ip), vehicle: saline 104 % of control | dose: 400.0 mg/kg/injection, schedule: Q01DX009 (ip), vehicle: saline 91 % of control

Clc1ccc2c(NCCNC3CCCCC3)ccnc2c1
inactive: dose: 9.38 mg/kg/injection, schedule: Q01DX001 (ip), vehicle: saline 105 % of control | dose: 18.75 mg/kg/injection, schedule: Q01DX001 (ip), vehicle: saline 100 % of control | dose: 37.5 mg/kg/injection, schedule: Q01DX001 (ip), vehicle: saline 108 % of control

Clc1cccc(C[N+]23CC[N+](Cc4cccc(Cl)c4)(CC2)C3)c1
inactive: [1] 103 % of control | [2] 111 % of control

NNC(=O)Cc1ccccc1
inactive: [3] 94 % of control | [4] 89 % of control

COC(=O)Nc1cccc(OC(=O)NC(C)C)c1
inactive: [5] 95 % of control | [6] 93 % of control | [7] 93 % of control

CCOC(=O)c1ccc(S(=O)(=O)NCCCc2c(C)nc(N)[nH]c2=O)cc1
inactive: dose: 12.5 mg/kg/injection, schedule: Q01DX001 (ip), vehicle: saline with Tween-80 90 % of control | dose: 25.0 mg/kg/injection, schedule: Q01DX001 (ip), vehicle: saline with Tween-80 103 % of control | dose: 50.0 mg/kg/injection, schedule: Q01DX001 (ip), vehicle: saline with Tween-80 90 % of control

CC#CC(=O)c1ccccc1
inactive: dose: 7.5 mg/kg/injection, schedule: Q04DX003 (ip), vehicle: saline 97 % of control | dose: 15.0 mg/kg/injection, schedule: Q04DX003 (ip), vehicle: saline 94 % of control | dose: 30.0 mg/kg/injection, schedule: Q04DX003 (ip), vehicle: saline 95 % of control

CC12CCC(C)(O1)C1C(=O)OC(=O)C12 (stereo not drawn)
inactive: [8] 96 % of control | [9] 98 % of control | dose: 400.0 mg/kg/injection, schedule: Q04DX003 (ip), vehicle: Klucel (hydroxypropylcellulose) (HPC) 98 % of control

O=C(O)CC(NC(=O)CNC(=O)OCc1ccccc1)C(=O)O (stereo not drawn) (Cbz-Gly-[ξD]-OH)
inactive: dose: 50.0 mg/kg/injection, schedule: Q01DX009 (ip), vehicle: Klucel (hydroxypropylcellulose) (HPC) 93 % of control | dose: 50.0 mg/kg/injection, schedule: Q04DX003 (ip), vehicle: Klucel (hydroxypropylcellulose) (HPC) 94 % of control | [10] 93 % of control | [8] 98 % of control | [11] 95 % of control | [9] 94 % of control

O=c1c2ccccc2nc2n1CCC2
inactive: dose: 25.0 mg/kg/injection, schedule: Q01DX001 (ip), vehicle: saline 102 % of control | dose: 50.0 mg/kg/injection, schedule: Q01DX001 (ip), vehicle: saline 93 % of control | dose: 75.0 mg/kg/injection, schedule: Q01DX001 (ip), vehicle: saline 104 % of control

COC(=O)C12C=CC(C1)n1c(=O)n(-c3ccccc3)c(=O)n12 (stereo not drawn)
inactive: [5] 97 % of control | [6] 105 % of control | [7] 103 % of control

COc1ccc(Cl)cc1N
inactive: [10] 86 % of control | [12] 100 % of control | [8] 93 % of control | [13] 94 % of control | [9] 92 % of control | [14] 104 % of control

CCCCCC(=O)CC(=O)c1cccs1
inactive: dose: 200.0 mg/kg/injection, schedule: Q01DX Z (ip), vehicle: other 100 % of control | dose: 400.0 mg/kg/injection, schedule: Q01DX Z (ip), vehicle: other 103 % of control

CCCCS/C=C1/CC2(C)C(CCC3C4CCC(O)C4(C)CCC32)CC1=O (stereo not drawn)
inactive: [8] 89 % of control | [9] 91 % of control

Clc1ccc(-c2cc(=[N+]3CCC4(CC3)SSC3(CC[N+](=c5cc(-c6ccc(Cl)cc6)ss5)CC3)S4)ss2)cc1 (stereo not drawn)
inactive: dose: 25.0 mg/kg/injection, schedule: Q01DX009 (ip), vehicle: water 90 % of control | dose: 50.0 mg/kg/injection, schedule: Q01DX009 (ip), vehicle: water 90 % of control | dose: 100.0 mg/kg/injection, schedule: Q01DX009 (ip), vehicle: water 88 % of control | dose: 400.0 mg/kg/injection, schedule: Q01DX009 (ip), vehicle: water 87 % of control

CC(C)=C(CO)CCC(C)C
inactive: [15] 100 % of control | [12] 94 % of control | [13] 89 % of control

O=c1[nH]nc(CC(Br)c2ccccc2)o1 (stereo not drawn)
inactive: [1] 91 % of control | [3] 103 % of control | [2] 90 % of control | [4] 93 % of control | [16] 99 % of control | dose: 400.0 mg/kg/injection, schedule: Q04DX003 (ip), vehicle: saline 105 % of control

O=S(=O)(C1CC1c1ccccc1)N1CCOCC1 (stereo not drawn)
inactive: [1] 101 % of control | [2] 106 % of control | [16] 95 % of control

CC1CCC(OC(C[N+](=O)[O-])C(Cl)(Cl)Cl)CC1 (stereo not drawn)
inactive: [12] 93 % of control | [5] 106 % of control | [13] 91 % of control | [6] 101 % of control | [14] 90 % of control | [7] 104 % of control

Cc1ccc([N+](=O)[O-])cc1NC(=O)NCCCl
inactive: [5] 90 % of control | [6] 90 % of control | [7] 92 % of control

NC(=O)c1ccccc1NC(=O)Nc1ccccc1C(F)(F)F
inactive: [10] 98 % of control | [11] 98 % of control | dose: 400.0 mg/kg/injection, schedule: Q01DX009 (ip), vehicle: Klucel (hydroxypropylcellulose) (HPC) 100 % of control

CCOC(=O)c1c(Cl)c(Cl)c(Cl)c(Cl)c1C(=O)O
inactive: dose: 100.0 mg/kg/injection, schedule: Q01DX001 (ip), vehicle: saline with Tween-80 95 % of control | [12] 96 % of control | dose: 200.0 mg/kg/injection, schedule: Q01DX001 (ip), vehicle: saline with Tween-80 97 % of control | [13] 102 % of control | dose: 400.0 mg/kg/injection, schedule: Q01DX001 (ip), vehicle: saline with Tween-80 115 % of control

O=S1(=O)CC2C3C=CC(O3)C21 (stereo not drawn)
inactive: dose: 75.0 mg/kg/injection, schedule: Q01DX001 (ip), vehicle: carboxymethylcellulose (CMC) 102 % of control | dose: 150.0 mg/kg/injection, schedule: Q01DX001 (ip), vehicle: carboxymethylcellulose (CMC) 98 % of control

N#Cc1ccc(Nc2ccc(C#N)cc2)cc1
inactive: dose: 25.0 mg/kg/injection, schedule: Q01DX009 (ip), vehicle: saline with Tween-80 105 % of control | [15] 94 % of control | [12] 94 % of control | [5] 96 % of control | [6] 96 % of control | [7] 91 % of control

C[CH2][Pb]([CH2]C)([CH2]C)[S]c1ccccn1
inactive: dose: 25.0 mg/kg/injection, schedule: Q04DX002 (sc), vehicle: olive oil, sesame oil, peanut oil 95 % of control | dose: 50.0 mg/kg/injection, schedule: Q04DX002 (sc), vehicle: olive oil, sesame oil, peanut oil 100 % of control | dose: 100.0 mg/kg/injection, schedule: Q04DX002 (sc), vehicle: olive oil, sesame oil, peanut oil 100 % of control

CC(=O)C1(O)Cc2c(O)c3c(c(O)c2C(OC2CC(N)C(O)C(C)O2)C1)C(=O)c1ccccc1C3=O (stereo not drawn)
inactive: dose: 0.1 mg/kg/injection, schedule: Q01DX009 (ip), vehicle: saline 119 % of control | dose: 0.8 mg/kg/injection, schedule: Q01DX009 (ip), vehicle: saline 92 % of control

COc1ccc(C(=O)C(C)CN2CCOCC2)cc1 (stereo not drawn)
inactive: [1] 102 % of control | [2] 105 % of control | [16] 102 % of control
